Data published in PubChem BioAssay AID1963842 (Molecular Pharmacology Branch, DTP, NCI, 2024).

Test system: 677734-321-R-J1-PDC complex spheroid viability
Test: Anticancer human tumor 677734-321-R-J1-PDC patient-derived soft tissue sarcoma cell line growth inhibition [POLQ]
Conditions: for IC50: curve of first compound; for viability, T/C: stronger effect = lower value
In short: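 Patient-derived tumour cells were co-cultured with HUVEC and mesenchymal stem cells as multicellular spheroids at 37 °C. They were treated with POLQ inhibitors (novobiocin, ART-558, RP6685) alone or combined with other agents. Top concentrations were at or near clinical Cmax (otherwise 10 microM; SN-38 at 1 microM), decreasing in half-log steps.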

[1] = second compound 0.0316 µM, first compound 0.0316 µM
[2] = second compound 0.0316 µM, first compound 0.1 µM
[3] = second compound 0.0316 µM, first compound 0.316 µM
[4] = second compound 0.0316 µM, first compound 1 µM
[5] = second compound 0.0316 µM, first compound 3.16 µM
[6] = second compound 0.0316 µM, first compound 10 µM
[7] = second compound 0.1 µM, first compound 0.0316 µM
[8] = second compound 0.1 µM, first compound 0.1 µM
[9] = second compound 0.1 µM, first compound 0.316 µM
[10] = second compound 0.1 µM, first compound 1 µM
[11] = second compound 0.1 µM, first compound 3.16 µM
[12] = second compound 0.1 µM, first compound 10 µM
[13] = second compound 0.316 µM, first compound 0.0316 µM
[14] = second compound 0.316 µM, first compound 0.1 µM
[15] = second compound 0.316 µM, first compound 0.316 µM
[16] = second compound 0.316 µM, first compound 1 µM
[17] = second compound 0.316 µM, first compound 3.16 µM
[18] = second compound 0.316 µM, first compound 10 µM
[19] = second compound 1 µM, first compound 0.0316 µM
[20] = second compound 1 µM, first compound 0.1 µM
[21] = second compound 1 µM, first compound 0.316 µM
[22] = second compound 1 µM, first compound 1 µM
[23] = second compound 1 µM, first compound 3.16 µM
[24] = second compound 1 µM, first compound 10 µM
[25] = second compound 3.16 µM, first compound 0.0316 µM
[26] = second compound 3.16 µM, first compound 0.1 µM
[27] = second compound 3.16 µM, first compound 0.316 µM
[28] = second compound 3.16 µM, first compound 1 µM
[29] = second compound 3.16 µM, first compound 3.16 µM
[30] = second compound 3.16 µM, first compound 10 µM
[31] = second compound 10 µM, first compound 0.0316 µM
[32] = second compound 10 µM, first compound 0.1 µM
[33] = second compound 10 µM, first compound 0.316 µM
[34] = second compound 10 µM, first compound 1 µM
[35] = second compound 10 µM, first compound 3.16 µM
[36] = second compound 10 µM, first compound 10 µM
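Note: spheroids exposed to compounds for one week.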
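Throughout, for viability, T/C: 100% = vehicle DMSO treated spheroids.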

`CC1COCCN1c1cc(C2(S(C)(=N)=O)CC2)nc(-c2ccnc3[nH]ccc23)n1` (centres undefined) + Nc1ccc(C#CCN(C(=O)Cc2ncc(C(F)(F)F)cc2C(F)(F)F)c2ccc(F)cc2)nn1 showed an IC50 (second compound 0.0316 µM) of 1370 nM, an IC50 (second compound 0.1 µM) of 1230 nM and an IC50 (second compound 0.316 µM) of 879 nM. For the same compound, the IC50 (second compound 1 µM) was 1030 nM, the IC50 (second compound 3.16 µM) was 884 nM and the IC50 (second compound 10 µM) was 656 nM. For the same compound, the viability, T/C [1] was 98.3%, the viability, T/C [2] was 91.7% and the viability, T/C [3] was 75%. It also gave a viability, T/C [4] of 65.3%, a viability, T/C [5] of 23.5% and a viability, T/C [6] of 9.33%. It also gave a viability, T/C [7] of 96.2%, a viability, T/C [8] of 118% and a viability, T/C [9] of 73.6%. The viability, T/C [10] was 57.1%, the viability, T/C [11] was 28.1% and the viability, T/C [12] was 7.36%. It also gave a viability, T/C [13] of 109%, a viability, T/C [14] of 105% and a viability, T/C [15] of 105%. It also gave a viability, T/C [16] of 42.7%, a viability, T/C [17] of 27.1% and a viability, T/C [18] of 9.47%. The viability, T/C [19] was 118%, the viability, T/C [20] was 94.5% and the viability, T/C [21] was 72.9%. For the same compound, the viability, T/C [22] was 59.2%, the viability, T/C [23] was 19.1% and the viability, T/C [24] was 8.77%. It also gave a viability, T/C [25] of 111%, a viability, T/C [26] of 87.1% and a viability, T/C [27] of 96.9%. The viability, T/C [28] was 43.3%, the viability, T/C [29] was 21.7% and the viability, T/C [30] was 8.55%. For the same compound, the viability, T/C [31] was 105%, the viability, T/C [32] was 103% and the viability, T/C [33] was 72.6%. The viability, T/C [34] was 35.2%, the viability, T/C [35] was 19.3% and the viability, T/C [36] was 6.41%.
With `Nc1ccn(C2OC(CO)C(O)C2(F)F)c(=O)n1` (centres undefined) + COC1C(OC(N)=O)C(O)C(Oc2ccc3c(O)c(NC(=O)c4ccc(O)c(CC=C(C)C)c4)c(=O)oc3c2C)OC1(C)C the IC50 (second compound 0.0316 µM) was under 31.6 nM, the IC50 (second compound 0.1 µM) was under 31.6 nM and the IC50 (second compound 0.316 µM) was under 31.6 nM. The IC50 (second compound 1 µM) was under 31.6 nM, the IC50 (second compound 3.16 µM) was under 31.6 nM and the IC50 (second compound 10 µM) was under 31.6 nM. The viability, T/C [1] was 32.5%, the viability, T/C [2] was 15.3% and the viability, T/C [3] was 13.9%. It also gave a viability, T/C [4] of 11.8%, a viability, T/C [5] of 10.9% and a viability, T/C [6] of 8.72%. It also gave a viability, T/C [7] of 38.9%, a viability, T/C [8] of 17.6% and a viability, T/C [9] of 14%. The viability, T/C [10] was 12.8%, the viability, T/C [11] was 8.3% and the viability, T/C [12] was 9.61%. For the same compound, the viability, T/C [13] was 30.9%, the viability, T/C [14] was 16.8% and the viability, T/C [15] was 15.9%. For the same compound, the viability, T/C [16] was 13.1%, the viability, T/C [17] was 12.1% and the viability, T/C [18] was 8.63%. It also gave a viability, T/C [19] of 30.2%, a viability, T/C [20] of 17.2% and a viability, T/C [21] of 11.1%. It also gave a viability, T/C [22] of 14.3%, a viability, T/C [23] of 11.7% and a viability, T/C [24] of 7.96%. The viability, T/C [25] was 30.1%, the viability, T/C [26] was 16.6% and the viability, T/C [27] was 12.9%. For the same compound, the viability, T/C [28] was 14.5%, the viability, T/C [29] was 11.4% and the viability, T/C [30] was 8.33%. The viability, T/C [31] was 39.1%, the viability, T/C [32] was 12.8% and the viability, T/C [33] was 12.1%. The viability, T/C [34] was 13.1%, the viability, T/C [35] was 11.1% and the viability, T/C [36] was 11%.
